# Laboratory results published in ChEMBL document CHEMBL1146107, “Investigation of mechanism-based thrombin inhibitors: Implications of a highly conserved water molecule for the binding of coumarins within the S pocket” (Bioorg Med Chem Lett, 2006).
# Target: Prothrombin (Homo sapiens, UniProt P00734)
# Assay: Inhibition of thrombin
row,Structure (SMILES),IC50 [µM]
1,NC1CCC(OC(=O)c2cc3cc(CCl)ccc3oc2=O)CC1 (stereo not drawn),> 300
2,NCCCOC(=O)c1cc2cc(CCl)ccc2oc1=O,> 300
3,NC(N)=NCCCOC(=O)c1cc2cc(CCl)ccc2oc1=O,> 300
4,N=C(N)NCCOC(=O)c1cc2cc(CCl)ccc2oc1=O,107
5,O=C(OC1CCNCC1)c1cc2cc(CCl)ccc2oc1=O,> 300

# The remaining lines, values ahead:
row,IC50 [µM],Structure (SMILES)
1,284,NCCOC(=O)c1cc2cc(CCl)ccc2oc1=O
2,> 300,N=C(N)Nc1cccc(OC(=O)c2cc3cc(CCl)ccc3oc2=O)c1
3,1.39,Cc1cccc(OC(=O)c2cc3cc(CCl)ccc3oc2=O)n1
4,151,N=C(N)Nc1ccc(OC(=O)c2cc3cc(CCl)ccc3oc2=O)cc1
5,> 300,O=C(Oc1cncc(Cl)c1)c1cc2cc(CCl)ccc2oc1=O
6,1.98,Nc1cccc(OC(=O)c2cc3cc(CCl)ccc3oc2=O)c1
7,48,Nc1ccc(OC(=O)c2cc3cc(CCl)ccc3oc2=O)cc1
8,0.87,O=C(Oc1cccc(Cl)n1)c1cc2cc(CCl)ccc2oc1=O
